Assay results taken from patent publication US9446047B2, “Substituted 2,3-dihydro-1H-inden-1-one retinoic acid-related orphan nuclear receptor antagonists for treating multiple sclerosis” (Arrien Pharmaceuticals LLC, priority 2013, dated 2016).
Where two headings read alike, the source gives them in different places.

Columns and labels:
RORγ-LBD (RORγt) = target: T1, RORγ-LBD (RORγt) (Homo sapiens, UniProt P51449); experiment: TR-FRET RORγt Binding Assay; details: 6-His(GST)RORγ-LBD, SRC1_2 peptide, read-out: RORγt Binding
T1 construct: the 6-His-(GST) RORγ-LBD was used which expressed and purified from baculovirus infected Sf-21 insect cells; made in house; host or cells: baculovirus-infected Sf-21 insect cells
T1 sequence (P51449 269-508 limits assumed): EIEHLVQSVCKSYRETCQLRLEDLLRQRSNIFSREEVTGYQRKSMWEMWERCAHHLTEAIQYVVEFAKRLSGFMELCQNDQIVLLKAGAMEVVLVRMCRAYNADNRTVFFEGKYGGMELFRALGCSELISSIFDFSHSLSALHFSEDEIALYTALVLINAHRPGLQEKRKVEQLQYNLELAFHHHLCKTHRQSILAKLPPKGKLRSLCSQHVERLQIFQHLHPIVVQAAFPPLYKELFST

RORγt = target: T2, RORγt (Homo sapiens, UniProt P51449); experiment: RORγt-activated IL-17A Prom/LUCPorter HEK 293 cells luciferase reporter assay; assay type: cell-based; details: IL-17A Prom/LUCPorter HEK 293 cells transfected with RORγt, 16 h; read-out: RORγt Cell Specific
T2 construct: host or cells: IL-17A Prom/LUCPorter HEK 293 cell line (IMGENEX, IML-301)
T2 sequence (P51449 1-497 isoform P51449-2): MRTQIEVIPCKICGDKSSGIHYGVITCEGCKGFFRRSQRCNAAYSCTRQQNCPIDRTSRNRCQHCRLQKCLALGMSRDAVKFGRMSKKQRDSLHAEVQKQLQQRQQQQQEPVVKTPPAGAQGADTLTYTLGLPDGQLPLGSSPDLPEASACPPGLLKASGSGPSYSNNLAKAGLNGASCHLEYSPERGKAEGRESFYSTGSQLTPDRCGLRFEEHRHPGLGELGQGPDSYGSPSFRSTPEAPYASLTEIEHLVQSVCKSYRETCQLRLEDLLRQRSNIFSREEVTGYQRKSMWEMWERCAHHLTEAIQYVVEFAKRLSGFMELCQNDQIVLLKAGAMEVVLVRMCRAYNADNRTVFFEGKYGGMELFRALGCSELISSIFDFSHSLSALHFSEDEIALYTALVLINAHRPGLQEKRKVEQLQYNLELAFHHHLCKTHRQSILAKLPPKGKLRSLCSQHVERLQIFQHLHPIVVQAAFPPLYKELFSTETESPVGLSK

[1] = test system: IL-17 release from CD4+ T cells; experiment: Cytokine IL-17 estimation by HTRF, IL-17 release from CD4+ T cells; assay type: cell-based; details: Homo sapiens, HTRF
[2] = Rat pharmacokinetics, intravenous bolus and oral gavage; assay type: in vivo, male Sprague Dawley rats; details: plasma
Procedure: The bio-availability and pharmacokinetics of some compounds of the present invention were examined in male Sprague Dawley rats. A total of 6 male rats were used in the study. The study was performed using parallel design (n=3) with serial sampling.
Dose formulations were prepared on the day of doing. Blood samples were collected at 0.083 (only IV), 0.25, 0.5, 1, 2, 4, 8 and 24 h post-dose. At each time point, approximately 0.2 mL of blood was withdrawn from each cannulated rat through jugular vein and transferred to a pre-labeled microfuge tube containing 20 μL of […] K2EDTA per mL of blood. Following collection of blood sample, equal volume of heparinized saline was flushed into jugular vein of rat. The blood samples were centrifuged at 5000 g for 5 min at 4±2° C. The plasma was separated within 30 min of scheduled time and stored below −60° C. until bio-analysis. The plasma samples were analyzed for selected test EXAMPLES using a fixed-for purpose liquid chromatographic tandem mass spectrometric detection (LC-MS/MS) method with a lower limit of quantification of 2.21 ng/mL. The pharmacokinetic parameters for select EXAMPLES were calculated using the non-compartmental analysis tool of validated WinNonlin® software (Version 5.2).
Pharmacokinetic parameters (mean±SD; n=3) of 7 following intravenous bolus and oral gavage administration of 7 solution in male Sprague Dawley rats are shown in TABLE 4 below: […]

IL-17 production = experiment: Anti-CD3e antibody induced CD4+ T cell cytokine IL-17 production in male BALB/c mice (serum ELISA); assay type: in vivo, mouse; details: Dexamethasone treatment; serum at 1.5 h after anti-CD3e antibody
Procedure: Efficacy of substituted 2, 3-dihydro-1H-inden-1-one containing selected compounds on Inhibition of Anti-CD3e Antibody induced CD4^+ T cell Cytokine-IL-17 Production in Male BALB/c Mice
A quantitative analysis of mouse IL-17 sandwich ELISA was conducted from the collected serum samples (Mouse IL-17 ELISA Ready-DuoSet ELISA kit, from R&D Systems, USA). The serum samples tested were collected from mice after 1.5 h of anti-CD3e antibody challenge, before antibody challenge, the mice were treated with different doses of test compounds or Dexamethasone as mentioned above in experimental design. The capture antibody was diluted in coating buffer (1×PBS) and transferred into each well. The plate was sealed and incubated overnight at RT. The following day the wells of the plate were aspirated and washed (3 times), allowing a one minute soak time in each step. The plate was blocked using 1% BSA in PBS, sealed, and incubated in ambient conditions for not less than one hour. After the incubation period, the plate was washed as described above, and the standards and serum samples were added to the appropriate wells and incubated for two hours at RT. […] The plate was read at 450/570 nm using the Microplate Absorbance Reader (SpectraMax; M3). […] Percent inhibition of cytokine production was calculated for all groups compared to positive control.

[3] = IV 2 mg/kg, solution, male Sprague Dawley rats, mean±SD n=3
[4] = PO 10 mg/kg, solution, male Sprague Dawley rats, mean±SD n=3

Row | IC50 (RORγ-LBD (RORγt)) | IC50 (RORγt) | IC50 ([1]; IL-17 release from CD4+ T cells, read-out: IL-17 Inhibition) | bioavailability ([2]; male, Sprague Dawley, PO 10 mg/kg vs IV 2 mg/kg, AUCinf and nominal doses used, read-out: F (bioavailability)) | AUC(0-inf) [2, 3] | AUC(0-t) [2, 3] | clearance [2, 3] | half-life [2, 3] | Cmax ([2]; IV 2 mg/kg, solution, male Sprague Dawley rats, mean±SD n=3, footnote b: back extrapolated concentration at time zero) | AUC(0-inf) [2, 4] | AUC(0-t) [2, 4] | Cmax [2, 4] | Tmax ([2]; PO 10 mg/kg, solution, male Sprague Dawley rats, median (min-max)) | IC50 ([1]; CD4+ T lymphocytes, standards, read-out: IC50 of IL-17 inhibition (assay standards)) | SMILES | reduction in IL-17 production compared to positive control group (IL-17 production)
1 | > 1000 nM | > 10000 nM | > 1000 nM | 19% | 589 ± 63.9 ng·h/mL | 572 ± 57.4 ng·h/mL | 57 ± 5.85 mL/min/kg | 6.63 ± 4.92 h | 1940 ± 482 ng/mL | 558 ± 125 ng·h/mL | 553 ± 124 ng·h/mL | 176 ± 22.7 ng/mL | 2 h |  | COc1cc2c(cc1N1CCOCC1)CC(Cc1cccc(OC(F)(F)F)c1)C2=O (stereo not drawn) [compound 31, 6-methoxy-5-morpholino-2-(3-(trifluoromethoxy)benzyl)-2,3-dihydro-1H-inden-1-one] | 
2 |  |  |  |  |  |  |  |  |  |  |  |  |  | 14 nM | C[C@@H]1C[C@H]2[C@@H]3CCC4=CC(=O)C=C[C@]4(C)[C@@]3(F)[C@@H](O)C[C@]2(C)[C@@]1(O)C(=O)CO [Dexamethasone, reference compound] | 94%
